{"source": "ChEMBL document CHEMBL1158459", "about": "“Discovery of a peroxisome proliferator activated receptor gamma (PPARgamma) modulator with balanced PPARalpha activity for the treatment of type 2 diabetes and dyslipidemia” (J Med Chem, 2009)", "key": {"Rattus norvegicus [1]": {"test_system": "Rattus norvegicus", "assay": "Toxicity in Sprague-Dawley rat assessed as increase in heart weight at 60 mg/kg, po once daily for 14 days", "assay_type": "organism-based", "parameters": "dose 60 mg/kg, route oral", "details": "in vivo, 336 h"}, "Rattus norvegicus [2]": {"test_system": "Rattus norvegicus", "assay": "Toxicity in Sprague-Dawley rat assessed as increase albumin/globulin levels at 60 mg/kg, po once daily for 14 days", "assay_type": "organism-based", "parameters": "dose 60 mg/kg, route oral", "details": "in vivo, 336 h"}, "Mus musculus [3]": {"test_system": "Mus musculus", "assay": "Antidiabetic activity in high fat diet-fed streptozotocin-treated mouse assessed as reduction in plasma glucose levels at 30 mg/kg, po once daily for 12 days relative to control", "assay_type": "functional", "parameters": "scale not given: the % may be the effect or the level left"}, "Rattus norvegicus [4]": {"test_system": "Rattus norvegicus", "assay": "Antidiabetic activity in Zucker fa/fa rat assessed as decrease in free fatty acid levels at 0.03 mg/kg, po once daily for 7 days", "assay_type": "functional, organism-based", "parameters": "dose 0.03 mg/kg"}, "[5]": {"assay": "AUC in C57BLKS/J-m+/+Leprdb db/db mouse at 1 mg/kg, po once daily for 11 days", "assay_type": "ADME, organism-based", "parameters": "dose 1 mg/kg, route oral", "details": "plasma"}, "Mus musculus [6]": {"test_system": "Mus musculus", "assay": "Antidiabetic activity in C57BLKS/J-m+/+Leprdb db/db mouse assessed as reduction in plasma triglyceride levels at 1 mg/kg, po once daily for 11 days relative to control", "assay_type": "functional", "parameters": "scale not given: the % may be the effect or the level left"}, "Syrian golden hamster [7]": {"test_system": "Syrian golden hamster", "assay": "Antidiabetic activity in Syrian golden hamster assessed as reduction in triglyceride level at 1 mg/kg, po once daily for 9 days relative to control", "assay_type": "functional, Mesocricetus auratus", "parameters": "scale not given: the % may be the effect or the level left"}, "Rattus norvegicus [8]": {"test_system": "Rattus norvegicus", "assay": "Toxicity in Sprague-Dawley rat assessed as increase bilirubin levels at 60 mg/kg, po once daily for 14 days", "assay_type": "organism-based", "parameters": "dose 60 mg/kg, route oral", "details": "in vivo, 336 h"}, "Mus musculus [9]": {"test_system": "Mus musculus", "assay": "Antidiabetic activity in ob/ob mouse assessed as reduction in plasma glucose levels at 10 mg/kg, po once daily for 5 days relative to control", "assay_type": "functional", "parameters": "scale not given: the % may be the effect or the level left"}, "Rattus norvegicus [10]": {"test_system": "Rattus norvegicus", "assay": "Toxicity in Sprague-Dawley rat assessed as increase in brown adipose tissue weight at 60 mg/kg, po once daily for 14 days", "assay_type": "organism-based", "parameters": "dose 60 mg/kg, route oral", "details": "in vivo, 336 h"}, "Rattus norvegicus [11]": {"test_system": "Rattus norvegicus", "assay": "Toxicity in Zucker fa/fa rat assessed as increase in heart weight at 10 mg/kg, po treated once daily for 7 days", "assay_type": "organism-based", "parameters": "dose 10 mg/kg, route oral", "details": "in vivo, 168 h"}, "[12]": {"target": "Glucocorticoid receptor (Homo sapiens) (UniProt P04150)", "sequence (P04150 whole entry)": "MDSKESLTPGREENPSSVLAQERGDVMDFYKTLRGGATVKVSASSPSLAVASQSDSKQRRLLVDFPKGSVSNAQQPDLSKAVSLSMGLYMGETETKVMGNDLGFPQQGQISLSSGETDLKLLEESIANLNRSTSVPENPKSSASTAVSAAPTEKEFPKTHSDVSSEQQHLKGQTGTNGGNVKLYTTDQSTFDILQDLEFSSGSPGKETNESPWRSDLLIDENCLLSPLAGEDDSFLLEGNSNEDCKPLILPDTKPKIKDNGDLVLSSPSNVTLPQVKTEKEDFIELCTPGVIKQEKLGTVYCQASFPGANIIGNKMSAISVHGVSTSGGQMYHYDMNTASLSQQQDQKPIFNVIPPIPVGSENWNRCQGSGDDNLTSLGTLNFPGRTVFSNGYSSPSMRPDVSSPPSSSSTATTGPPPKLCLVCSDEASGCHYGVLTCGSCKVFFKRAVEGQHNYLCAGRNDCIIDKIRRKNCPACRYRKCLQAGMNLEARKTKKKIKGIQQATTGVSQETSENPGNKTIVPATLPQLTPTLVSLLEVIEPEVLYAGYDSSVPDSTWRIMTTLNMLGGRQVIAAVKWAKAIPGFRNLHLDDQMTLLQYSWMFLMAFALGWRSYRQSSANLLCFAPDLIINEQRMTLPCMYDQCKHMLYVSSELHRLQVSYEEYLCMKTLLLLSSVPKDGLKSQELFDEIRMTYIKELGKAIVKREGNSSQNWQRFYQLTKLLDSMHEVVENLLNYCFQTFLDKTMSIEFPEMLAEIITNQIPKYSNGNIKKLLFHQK", "assay": "Binding affinity to GR up to 10 uM"}, "[13]": {"target": "Thyroid hormone receptor beta (Homo sapiens) (UniProt P10828)", "sequence (P10828 whole entry)": "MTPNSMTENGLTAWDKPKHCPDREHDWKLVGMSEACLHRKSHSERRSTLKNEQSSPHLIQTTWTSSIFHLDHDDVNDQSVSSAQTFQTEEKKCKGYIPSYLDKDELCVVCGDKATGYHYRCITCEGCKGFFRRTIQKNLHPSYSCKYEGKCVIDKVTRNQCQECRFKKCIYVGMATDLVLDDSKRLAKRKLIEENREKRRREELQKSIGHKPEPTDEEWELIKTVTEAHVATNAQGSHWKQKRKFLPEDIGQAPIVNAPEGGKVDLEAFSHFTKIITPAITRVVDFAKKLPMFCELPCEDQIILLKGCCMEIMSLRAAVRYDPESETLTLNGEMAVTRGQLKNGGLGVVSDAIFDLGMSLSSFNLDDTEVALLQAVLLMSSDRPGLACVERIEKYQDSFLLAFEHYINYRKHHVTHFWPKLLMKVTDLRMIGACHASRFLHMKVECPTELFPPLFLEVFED", "assay": "Activity at TRbeta receptor up to 10 uM by transactivation assay"}, "Cytochrome P450 2C9": {"target": "Cytochrome P450 2C9 (Homo sapiens, UniProt P11712)", "sequence (P11712 whole entry)": "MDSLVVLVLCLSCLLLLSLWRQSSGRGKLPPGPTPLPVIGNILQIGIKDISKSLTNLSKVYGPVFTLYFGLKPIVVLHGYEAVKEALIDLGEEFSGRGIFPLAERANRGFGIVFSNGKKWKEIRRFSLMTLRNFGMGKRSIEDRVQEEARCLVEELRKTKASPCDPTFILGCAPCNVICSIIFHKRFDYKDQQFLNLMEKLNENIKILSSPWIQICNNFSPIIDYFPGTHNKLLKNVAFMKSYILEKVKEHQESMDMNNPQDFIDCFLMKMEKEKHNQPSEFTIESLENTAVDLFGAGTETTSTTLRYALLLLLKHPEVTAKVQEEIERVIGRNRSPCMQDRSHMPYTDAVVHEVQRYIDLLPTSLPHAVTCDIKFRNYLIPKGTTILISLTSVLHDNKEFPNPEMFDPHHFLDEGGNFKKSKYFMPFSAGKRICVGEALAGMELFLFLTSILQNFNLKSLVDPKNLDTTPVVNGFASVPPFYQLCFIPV", "assay": "Inhibition of CYP2C9", "assay_type": "ADME"}, "Mus musculus [14]": {"test_system": "Mus musculus", "assay": "Antidiabetic activity in ob/ob mouse assessed as insulin correction at 3 mg/kg, po once daily for 5 days relative to control", "assay_type": "functional"}, "Syrian golden hamster [15]": {"test_system": "Syrian golden hamster", "assay": "Antidiabetic activity in Syrian golden hamster assessed as reduction in cholesterol level at 3 mg/kg, po once daily for 9 days relative to control", "assay_type": "functional, Mesocricetus auratus", "parameters": "scale not given: the % may be the effect or the level left"}, "[16]": {"assay": "AUC in Syrian golden hamster at 0.3 mg/kg, po once daily for 9 days", "assay_type": "ADME, organism-based, Mesocricetus auratus", "parameters": "dose 0.3 mg/kg, route oral", "details": "plasma"}, "[17]": {"target": "Estrogen receptor beta (Homo sapiens) (UniProt Q92731)", "sequence (Q92731 whole entry)": "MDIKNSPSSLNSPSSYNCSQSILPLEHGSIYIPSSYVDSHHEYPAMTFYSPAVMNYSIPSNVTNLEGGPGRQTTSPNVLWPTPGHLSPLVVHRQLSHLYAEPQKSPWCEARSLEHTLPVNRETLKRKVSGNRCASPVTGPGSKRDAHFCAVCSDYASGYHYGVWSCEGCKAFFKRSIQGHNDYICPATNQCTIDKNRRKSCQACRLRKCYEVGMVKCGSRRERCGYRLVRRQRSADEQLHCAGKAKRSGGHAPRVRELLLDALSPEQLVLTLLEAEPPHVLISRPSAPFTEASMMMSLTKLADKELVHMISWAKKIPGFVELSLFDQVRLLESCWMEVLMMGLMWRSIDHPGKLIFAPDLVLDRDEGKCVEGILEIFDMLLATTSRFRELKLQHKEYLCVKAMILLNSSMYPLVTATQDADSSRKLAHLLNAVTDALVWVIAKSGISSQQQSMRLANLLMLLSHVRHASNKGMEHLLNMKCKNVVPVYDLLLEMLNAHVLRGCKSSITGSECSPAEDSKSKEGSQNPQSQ", "assay": "Binding affinity to ERbeta up to 10 uM"}, "Rattus norvegicus [18]": {"test_system": "Rattus norvegicus", "assay": "Antidiabetic activity in Zucker fa/fa rat assessed as decrease in free fatty acid levels at 1 mg/kg, po once daily for 7 days", "assay_type": "functional, organism-based", "parameters": "dose 1 mg/kg"}, "[19]": {"assay": "Cmax in Beagle dog at 3 mg/kg, po once daily for 14 days", "assay_type": "ADME, organism-based, Canis lupus familiaris", "parameters": "dose 3 mg/kg, route oral", "details": "in vivo"}, "[20]": {"target": "Retinoic acid receptor RXR-alpha (Homo sapiens) (UniProt P19793)", "sequence (P19793 whole entry)": "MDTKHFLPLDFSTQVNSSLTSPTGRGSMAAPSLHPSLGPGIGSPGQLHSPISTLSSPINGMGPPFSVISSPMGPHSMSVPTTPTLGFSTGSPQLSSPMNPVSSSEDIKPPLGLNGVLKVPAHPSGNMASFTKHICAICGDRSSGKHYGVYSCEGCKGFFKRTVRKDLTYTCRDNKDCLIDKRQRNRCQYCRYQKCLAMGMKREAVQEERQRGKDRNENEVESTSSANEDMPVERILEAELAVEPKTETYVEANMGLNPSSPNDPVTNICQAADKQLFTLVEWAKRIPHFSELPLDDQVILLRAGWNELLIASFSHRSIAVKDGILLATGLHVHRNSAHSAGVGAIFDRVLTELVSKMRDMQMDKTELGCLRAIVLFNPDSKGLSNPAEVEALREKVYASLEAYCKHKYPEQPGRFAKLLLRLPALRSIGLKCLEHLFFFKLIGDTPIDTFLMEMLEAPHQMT", "assay": "Binding affinity to RXRalpha up to 10 uM"}, "Rattus norvegicus [21]": {"test_system": "Rattus norvegicus", "assay": "Antidiabetic activity in Zucker fa/fa rat assessed as decrease in triglyceride levels at 1 mg/kg, po once daily for 7 days", "assay_type": "functional, organism-based", "parameters": "dose 1 mg/kg"}}, "note": "Calls of active or inactive are those of the source. The calls are words filed in the database; no cut-off is given here.", "data": [{"smiles": "CC[C@@H](Oc1cccc(Cn2c(C)c(C(=O)c3ccc(Cl)cc3)c3ccc(OC(F)(F)F)cc32)c1)C(=O)O", "values": [{"measurement": "Activity", "setting": "Rattus norvegicus [1]", "value": 1, "unit": "%"}, {"measurement": "Activity", "setting": "Rattus norvegicus [2]", "value": 45, "unit": "%"}, {"measurement": "Activity", "setting": "Mus musculus [3]", "value": 103, "unit": "%"}, {"measurement": "Activity", "setting": "Rattus norvegicus [4]", "value": "Active"}, {"measurement": "AUC at 264 h", "setting": "[5]", "value": 1.9, "unit": "µM·h"}, {"measurement": "Activity", "setting": "Mus musculus [6]", "value": 75, "unit": "%"}, {"measurement": "Activity", "setting": "Syrian golden hamster [7]", "value": 30.7, "unit": "%"}, {"measurement": "Activity", "setting": "Rattus norvegicus [8]", "value": 48, "unit": "%"}, {"measurement": "Activity", "setting": "Mus musculus [9]", "value": 34, "unit": "%"}, {"measurement": "Activity", "setting": "Rattus norvegicus [10]", "value": 32, "unit": "%"}, {"measurement": "Activity", "setting": "Rattus norvegicus [11]", "value": "Toxic"}, {"measurement": "Activity", "setting": "[12]", "value": "inactive"}, {"measurement": "Activity", "setting": "[13]", "value": "inactive"}, {"measurement": "IC50", "setting": "Cytochrome P450 2C9", "value": 10, "unit": "µM"}, {"measurement": "Activity", "setting": "Mus musculus [14]", "value": 67, "unit": "%"}, {"measurement": "Activity", "setting": "Syrian golden hamster [15]", "value": 51.4, "unit": "%"}, {"measurement": "AUC at 216 h", "setting": "[16]", "value": 0.13, "unit": "µM·h"}, {"measurement": "Activity", "setting": "[17]", "value": "inactive"}, {"measurement": "Activity", "setting": "Rattus norvegicus [18]", "value": "Active"}, {"measurement": "Cmax", "setting": "[19]", "value": 18.6, "unit": "µM"}, {"measurement": "Activity", "setting": "[20]", "value": "inactive"}, {"measurement": "Activity", "setting": "Rattus norvegicus [21]", "value": "Active"}]}]}
